Source: patent US20100184601A1, “Method and Means Relating to Multiple Herbicide Resistance in Plants” (University of Durham, priority 2007, published 2010)

Test system: AmGSTL1
Assay: Effect of inhibitors on activity of recombinant black-grass AmGSTL (thiol transferase)
Type: biochemical, black-grass (Alopecurus myosuroides)
Conditions: 0.1 mM inhibitor; recombinant enzyme

SMILES: O=C1O/C(=C/Br)CCC1c1cccc2ccccc12 (stereo not shown) [BEL, Bromoenol lactone]
- inhibition of AmGSTL1 activity: totally inhibited
